Source: the NIST ThermoML archive (doi:10.1021/je500381c)

Assay: xn = mol fraction of the nth substance listed
Conditions: for mass density / viscosity: 100 kPa, Liquid; for mass density: Vibrating tube method; for surface tension liquid-gas: Drop volume

CCC12CC3CC(CC(C3)C1)C2 [1-ethyladamantane] + OCC1CCCCC1
Conditions	mass density [kg/m3]	surface tension liquid-gas [mN/m]	viscosity [mPa·s]
293.15 K, x2 = 0	937.11	–	6.371
293.15 K, x2 = 0.1	936.13	–	6.695
293.15 K, x2 = 0.2002	935.23	–	7.433
293.15 K, x2 = 0.2997	934.37	–	8.368
293.15 K, x2 = 0.3999	933.76	–	9.674
293.15 K, x2 = 0.4998	933.1	–	11.54
293.15 K, x2 = 0.5989	932.54	–	14.09
293.15 K, x2 = 0.7001	931.93	–	17.67
293.15 K, x2 = 0.8023	931.24	–	23.66
293.15 K, x2 = 0.8996	930.57	–	29.61
298.15 K, x2 = 0	933.58	29.87	5.565
298.15 K, x2 = 0.1	932.5	30.21	5.776
298.15 K, x2 = 0.2002	931.58	30.84	6.348
298.15 K, x2 = 0.2997	930.72	30.99	7.083
298.15 K, x2 = 0.3999	930.09	31.23	8.081
298.15 K, x2 = 0.4998	929.43	31.51	9.483
298.15 K, x2 = 0.5989	928.87	31.86	11.38
298.15 K, x2 = 0.7001	928.31	31.98	14.04
298.15 K, x2 = 0.8023	927.68	32.1	18.53
298.15 K, x2 = 0.8996	927	32.21	22.86
303.15 K, x2 = 0	929.99	–	4.903
303.15 K, x2 = 0.1	928.84	–	5.033
303.15 K, x2 = 0.2002	927.89	–	5.484
303.15 K, x2 = 0.2997	927.06	–	6.058
303.15 K, x2 = 0.3999	926.4	–	6.832
303.15 K, x2 = 0.4998	925.74	–	7.675
303.15 K, x2 = 0.5989	925.17	–	9.337
303.15 K, x2 = 0.7001	924.63	–	11.31
303.15 K, x2 = 0.8023	924.04	–	14.75
303.15 K, x2 = 0.8996	923.4	–	18.07
308.15 K, x2 = 0	926.4	–	4.348
308.15 K, x2 = 0.1	925.16	–	4.417
308.15 K, x2 = 0.2002	924.2	–	4.772
308.15 K, x2 = 0.2997	923.39	–	5.224
308.15 K, x2 = 0.3999	922.68	–	5.833
308.15 K, x2 = 0.4998	922.03	–	6.657
308.15 K, x2 = 0.5989	921.45	–	7.748
308.15 K, x2 = 0.7001	920.92	–	9.236
308.15 K, x2 = 0.8023	920.38	–	11.88
308.15 K, x2 = 0.8996	919.77	–	14.39
313.15 K, x2 = 0	922.81	–	3.878
313.15 K, x2 = 0.1	921.48	–	3.897
313.15 K, x2 = 0.2002	920.49	–	4.182
313.15 K, x2 = 0.2997	919.69	–	4.542
313.15 K, x2 = 0.3999	918.95	–	5.016
313.15 K, x2 = 0.4998	918.29	–	5.663
313.15 K, x2 = 0.5989	917.71	–	6.499
313.15 K, x2 = 0.7001	917.19	–	7.629
313.15 K, x2 = 0.8023	916.67	–	9.75
313.15 K, x2 = 0.8996	916.12	–	11.66
318.15 K, x2 = 0	919.21	–	3.478
318.15 K, x2 = 0.1	917.79	–	3.463
318.15 K, x2 = 0.2002	916.77	–	3.688
318.15 K, x2 = 0.2997	915.95	–	3.973
318.15 K, x2 = 0.3999	915.2	–	4.35
318.15 K, x2 = 0.4998	914.53	–	4.857
318.15 K, x2 = 0.5989	913.94	–	5.504
318.15 K, x2 = 0.7001	913.43	–	6.374
318.15 K, x2 = 0.8023	912.93	–	8.051
318.15 K, x2 = 0.8996	912.44	–	9.556
323.15 K, x2 = 0	915.62	–	3.134
323.15 K, x2 = 0.1	914.09	–	3.094
323.15 K, x2 = 0.2002	913.03	–	3.27
323.15 K, x2 = 0.2997	912.19	–	3.497
323.15 K, x2 = 0.3999	911.42	–	3.798
323.15 K, x2 = 0.4998	910.75	–	4.199
323.15 K, x2 = 0.5989	910.15	–	4.707
323.15 K, x2 = 0.7001	909.63	–	5.378
323.15 K, x2 = 0.8023	909.16	–	6.705
323.15 K, x2 = 0.8996	908.7	–	7.906
328.15 K, x2 = 0	912.01	–	2.838
328.15 K, x2 = 0.1	910.38	–	2.777
328.15 K, x2 = 0.2002	909.27	–	2.915
328.15 K, x2 = 0.2997	908.41	–	3.096
328.15 K, x2 = 0.3999	907.62	–	3.338
328.15 K, x2 = 0.4998	906.94	–	3.657
328.15 K, x2 = 0.5989	906.33	–	4.059
328.15 K, x2 = 0.7001	905.81	–	4.581
328.15 K, x2 = 0.8023	905.35	–	5.629
328.15 K, x2 = 0.8996	904.92	–	6.508
333.15 K, x2 = 0	908.41	–	2.581
333.15 K, x2 = 0.1	906.65	–	2.507
333.15 K, x2 = 0.2002	905.5	–	2.613
333.15 K, x2 = 0.2997	904.61	–	2.756
333.15 K, x2 = 0.3999	903.81	–	2.952
333.15 K, x2 = 0.4998	903.1	–	3.208
333.15 K, x2 = 0.5989	902.49	–	3.525
333.15 K, x2 = 0.7001	901.96	–	3.935
333.15 K, x2 = 0.8023	901.5	–	4.674
333.15 K, x2 = 0.8996	901.1	–	5.472
